# Source: US6395896B2, “Pyridazine derivatives, manufacturing method and related composition” (Shiseido Co., Ltd., priority 1999, dated 2002)
# What was measured:
# sunburn = assay: Ultraviolet rays prevention effect test on a beach (lotion and cream samples); format: in vivo, human
# Protocol: The prevention effect test was carried out on a beach during the summer. Equal amounts of sample were applied to the right and left sides of the backs of test subjects. After direct sunlight exposure, the degree of sunburn was evaluated in accordance with the following criteria. Each group consisted of 20 subjects. (Criterion) Remarkable effect: None or almost no sunburn symptom was found. Positive effect: Slight sunburn symptom was found. Negative effect: Strong sunburn symptom was found. (Evaluation) A: Subject of remarkable effect or positive effect is 80% or more. B: Subject of remarkable effect or positive effect is 50% or more and less than 80%. C: Subject of remarkable effect or positive effect is 30% or more and less than 50%. D: Subject of remarkable effect or positive effect is less than 30% (ii) Preparation of sample (A) Lotion [table] Each of water phase and alcohol phase was prepared. Then each was mixed. (B) Cream [table] The propylene glycol was added to ion-exchanged water and was dissolved, which was kept at 70° C. by heating (Water phase). The other components were mixed and melted by heating and was kept at 70° C. (Oil phase). The oil phase was added to the water phase, and an emulsion was formed.. After it was homogeneously emulsified with a homogenixer, it was cooled at 30° C. with stirring well.
# [1] = Photostability test (aqueous solution exposed to sunlight); format: physicochemical; details: sunlight 80 MJ/m^2, two weeks
# Protocol: After an aqueous solution of the pyridazine derivative of the present invention was exposed to sunlight (Amount of solar radiation exposure 80 MJ/m^2) for two weeks, residual yield and change of appearance were checked. UV absorption spectrum (Solvent: water, concentration: 10 ppm, Light path: 1 cm) was measured by spectrophotometer. Area value was calculated by integrating over the range of 290 nm to 400 nm of the ultraviolet rays absorption spectrum. The area value was compared with the value before sunlight exposure.
# The residual yield and change of area value of ultraviolet rays absorption spectrum were evaluated by the following standard.
# A: 95% or more of area value before sunlight exposure.
# B: 90% or more and less than 95% of area value before sunlight exposure.
# C: 70% or more and less than 90% of area value before sunlight exposure.
# D: less than 70% of area value before sunlight exposure.
# [2] = Drug stabilization effect (photostabilizer, sunlight exposure); design: key to Sunlight exposure (80 MJ) Appearance: A: No change; B: No almost change; C: Yes change; details: for Sunlight exposure (80 MJ) Appearance / Sunlight exposure (80 MJ) Residual yield [%]: photostabilizer 0.05, amounts wt %
# Protocol: Next, the photo stabilization effect and changes in appearance in drug compositions were studied according to the following evaluation formulation.
# Each test sample was prepared. Appearance changes of the samples exposed to sunlight (80 MJ) was observed (visual evaluation). Also, residual yield was measured by liquid chromatography.
# [3] = Drug stabilization effect (sequestering agent combination); design: key to Sunlight exposure (80 MJ) Appearance: A: No change; B: No almost change; C: Yes change; details: for Sunlight exposure (80 MJ) Appearance / Sunlight exposure (80 MJ) Residual yield [%]: amounts wt %
# Protocol: Next, when combined with a sequestering agent, the photostabilization effect and appearance change of a composition for each drug was studied by the following evaluation formulation.
# Each test sample was prepared. Appearance change of the samples exposed to sunlight (around 80 MJ) was observed (visual evaluation). Also, residual yield of a drug was measured by liquid chromatography.
# [4] = drug 2-o-α-α-glucopyranosyl-L-ascorbic acid 2.0
# [5] = drug Dibutylhydroxytoluene 0.01
# [6] = drug Dipotassium glycyrrhizinate 0.05
# [7] = drug L-ascorbic acid 2-(dl-α-tocopheryl hydrogen phosphate) potassium salt 0.01
# [8] = drug combined with photostabilizer, sunlight 80 MJ, summary of Table 23
# [9] = drug 2-o-α-α-glucopyranosyl-L-ascorbic acid 2.0, photostabilizer 0.03 + Sodium metaphosphate 0.03
# [10] = drug 2-o-α-α-glucopyranosyl-L-ascorbic acid 2.0, photostabilizer 0.03, no sequestering agent
# [11] = drug Dibutylhydroxytoluene 0.01, photostabilizer 0.03 + Sodium metaphosphate 0.03
# [12] = drug Dibutylhydroxytoluene 0.01, photostabilizer 0.03, no sequestering agent
# [13] = drug Dipotassium glycyrrhizinate 0.05, photostabilizer 0.03 + Sodium metaphosphate 0.03
# [14] = drug Dipotassium glycyrrhizinate 0.05, photostabilizer 0.03, no sequestering agent
# [15] = drug L-ascorbic acid 2-(dl-α-tocopheryl hydrogen phosphate) potassium salt 0.01, photostabilizer 0.03 + Trisodium hydroxyethyl ethylenediamine triacetate 0.03
# [16] = drug L-ascorbic acid 2-(dl-α-tocopheryl hydrogen phosphate) potassium salt 0.01, photostabilizer 0.03, no sequestering agent
# [17] = drug Salicylic acid 0.1, photostabilizer 0.03 + Trisodium ethylenediamine tetraacetate 0.03
# [18] = drug Salicylic acid 0.1, photostabilizer 0.03, no sequestering agent
compound,measurement,setting,value
"Oc1nncc(N2CCOCC2)c1N1CCOCC1 [4,5-Dimorpholino-3-hydroxypyridazine]",UV prevent effect,"sunburn; Cream, ultraviolet absorbent 0.0005 wt %",C (Subject of remarkable effect or positive effect is 30% or more and less than 50%.)
same,UV prevent effect,"sunburn; Cream, ultraviolet absorbent 0.001 wt %",B (Subject of remarkable effect or positive effect is 50% or more and less than 80%.)
same,UV prevent effect,"sunburn; Cream, ultraviolet absorbent 0.1 wt %",A (Subject of remarkable effect or positive effect is 80% or more.)
same,UV prevent effect,"sunburn; Cream, ultraviolet absorbent 1 wt %",A (Subject of remarkable effect or positive effect is 80% or more.)
same,UV prevent effect,"sunburn; Cream, ultraviolet absorbent 5 wt %",A (Subject of remarkable effect or positive effect is 80% or more.)
same,UV prevent effect,"sunburn; Cream, ultraviolet absorbent 10 wt %",A (Subject of remarkable effect or positive effect is 80% or more.)
same,UV prevent effect,"sunburn; Cream, ultraviolet absorbent 20 wt %",A (Subject of remarkable effect or positive effect is 80% or more.)
same,UV prevent effect,"sunburn; Lotion, ultraviolet absorbent 0.0005 wt %",C (Subject of remarkable effect or positive effect is 30% or more and less than 50%.)
same,UV prevent effect,"sunburn; Lotion, ultraviolet absorbent 0.001 wt %",B (Subject of remarkable effect or positive effect is 50% or more and less than 80%.)
same,UV prevent effect,"sunburn; Lotion, ultraviolet absorbent 0.01 wt %",A (Subject of remarkable effect or positive effect is 80% or more.)
same,UV prevent effect,"sunburn; Lotion, ultraviolet absorbent 1 wt %",A (Subject of remarkable effect or positive effect is 80% or more.)
same,UV prevent effect,"sunburn; Lotion, ultraviolet absorbent 5 wt %",A (Subject of remarkable effect or positive effect is 80% or more.)
same,UV prevent effect,"sunburn; Lotion, ultraviolet absorbent 10 wt %",A (Subject of remarkable effect or positive effect is 80% or more.)
same,UV prevent effect,"sunburn; Lotion, ultraviolet absorbent 20 wt %",A (Subject of remarkable effect or positive effect is 80% or more.)
same,Residual yield,[1],A (95% or more of area value before sunlight exposure.)
same,Change of area value of UV absorption spectrum,[1]; 290 nm to 400 nm,A (95% or more of area value before sunlight exposure.)
same,Sunlight exposure (80 MJ) Appearance,[2]; [4],A
same,Sunlight exposure (80 MJ) Residual yield [%],[2]; [4],99.3%
same,Sunlight exposure (80 MJ) Appearance,[2]; [5],A
same,Sunlight exposure (80 MJ) Residual yield [%],[2]; [5],98.8%
same,Sunlight exposure (80 MJ) Appearance,[2]; [6],A
same,Sunlight exposure (80 MJ) Residual yield [%],[2]; [6],100.3%
same,Sunlight exposure (80 MJ) Appearance,[2]; [7],A
same,Sunlight exposure (80 MJ) Residual yield [%],[2]; [7],99.4%
same,Sunlight exposure (80 MJ) Appearance,[2]; drug Salicylic acid 0.1,A
same,Sunlight exposure (80 MJ) Residual yield [%],[2]; drug Salicylic acid 0.1,100.3%
same,appearance changes of the composition,[2]; [8],small
same,residual yield of a drug,[2]; [8],very high in comparison with other photostabilizers
same,Sunlight exposure (80 MJ) Appearance,[3]; [9],A
same,Sunlight exposure (80 MJ) Residual yield [%],[3]; [9],99.3%
same,Sunlight exposure (80 MJ) Appearance,[3]; [10],A
same,Sunlight exposure (80 MJ) Residual yield [%],[3]; [10],98.3%
same,Sunlight exposure (80 MJ) Appearance,[3]; [11],A
same,Sunlight exposure (80 MJ) Residual yield [%],[3]; [11],98.8%
same,Sunlight exposure (80 MJ) Appearance,[3]; [12],B
same,Sunlight exposure (80 MJ) Residual yield [%],[3]; [12],95.8%
same,Sunlight exposure (80 MJ) Appearance,[3]; [13],A
same,Sunlight exposure (80 MJ) Residual yield [%],[3]; [13],100.0%
same,Sunlight exposure (80 MJ) Appearance,[3]; [14],A
same,Sunlight exposure (80 MJ) Residual yield [%],[3]; [14],97.2%
same,Sunlight exposure (80 MJ) Appearance,[3]; [15],A
same,Sunlight exposure (80 MJ) Residual yield [%],[3]; [15],99.4%
same,Sunlight exposure (80 MJ) Appearance,[3]; [16],B
same,Sunlight exposure (80 MJ) Residual yield [%],[3]; [16],98.5%
same,Sunlight exposure (80 MJ) Appearance,[3]; [17],A
same,Sunlight exposure (80 MJ) Residual yield [%],[3]; [17],100.1%
same,Sunlight exposure (80 MJ) Appearance,[3]; [18],B
same,Sunlight exposure (80 MJ) Residual yield [%],[3]; [18],99.2%
same,residual yield of a drug,"[3]; with a sequestering agent, compared with compositions without, Table 30",very small
